Data as given in publication PMC6133161, “Thiazoles with cyclopropyl fragment as antifungal, anticonvulsant, and anti-Toxoplasma gondii agents: synthesis, toxicity evaluation, and molecular docking study” (Medicinal Chemistry Research, 2018).

What was measured:
[1] = system: 6-Hz psychomotor seizures; assay: 6-Hz test; format: in vivo, mouse; settings: mice; for responders at 100 mg/kg: 100 mg/kg ip
Procedure: For in vivo tests that assessed anticonvulsant properties of the test compounds 3a-3j adult male Albino Swiss (CD-1) mice weighing between 18 and 22 g were used. The animals were housed in groups of ten mice per cage at room temperature of 22 ± 2 °C, under light/dark (12:12) cycle. The animals had free access to food and tap water before the experiments. The ambient temperature of the experimental room and humidity (50 ± 10%) were kept consistent throughout all the tests. For behavioral experiments the animals were selected randomly. Each experimental group consisted of 4-8 animals/dose. The experiments were performed between 9 AM and 2 PM. Immediately after the in vivo assay the animals were euthanized by cervical dislocation. All procedures were approved by the Local Ethics Committee of the Jagiellonian University in Krakow (34/2018, 1.02.2018)) and the treatment of animals was in full accordance with ethical standards laid down in respective Polish and EU regulations (Directive No. 86/609/EEC). For in vivo tests the compounds 3a-3j were prepared in 1% Tween 80 solution (POCH, Poland) and they were administered by the intraperitoneal route. Control mice received 1% Tween 80. Pentylenetetrazole (PTZ), pilocarpine hydrochloride and scopolamine butylbromide were provided by Sigma Aldrich (Poland). For the tests they were prepared in 0.9% saline (Polfa Kutno, Poland). PTZ and pilocarpine were administered 60 min after the test compound or vehicle. To assess anticonvulsant properties of the test compounds anticonvulsant screening was conducted. Four assays were used: PTZ, maximal electroshock seizure (MES), 6-Hz and pilocarpine tests. In these assays the dose of 100 mg/kg was chosen as a starting dose. If it turned out to be effective, a lower dose (30 mg/kg) was also tested. This test was performed according to (Barton et al. [2001]). It is an alternative electroshock paradigm that involves low-frequency (6 Hz), long-duration (3 s) electrical stimulation. Corneal stimulation (0.2 ms-duration monopolar rectangular pulses at 6 Hz for 3 s) was delivered by a constant-current device. During electrical stimulation mice were manually restrained and released into the observation cage immediately after current application. At the time of drug administration a drop of 0.5% tetracaine ([…] sterile solution, […] Pharmaceuticals Inc., USA) was applied into the eyes of all animals. Prior to the placement of corneal electrodes, a drop of 0.9% saline was applied on the eyes. In this model seizures manifest in 'stunned' posture associated with rearing, forelimb automatic movements and clonus, twitching of the vibrissae and Straub-tail. At the end of the seizure episode the animals resume their normal exploratory behavior. In this test protection against a seizure episode is considered as the end point and animals are considered to be protected if they resume their normal exploratory behavior within 10 s after electrical stimulation.

[2] = system: maximal electroshock seizures; assay: Maximal electroshock seizure (MES) test; format: in vivo, mouse; settings: mice; for animals with reduced seizures / responders at 30 mg/kg / responders at 100 mg/kg: MES test; for animals with reduced seizures: 100 mg/kg; for responders at 30 mg/kg / responders at 100 mg/kg: Mus musculus; for responders at 30 mg/kg: 30 mg/kg ip, read-out: X/Y number of mice protected (X) per number of mice tested (Y); for responders at 100 mg/kg: 100 mg/kg ip, read-out: X/Y number of mice protected (X) per number of mice tested (Y) (converted); for anticonvulsant activity in MES test: 30 mg/kg
Procedure: For in vivo tests that assessed anticonvulsant properties of the test compounds 3a–3j adult male Albino Swiss (CD-1) mice weighing between 18 and 22 g were used. The animals were housed in groups of ten mice per cage at room temperature of 22 ± 2 °C, under light/dark (12:12) cycle. The animals had free access to food and tap water before the experiments. The ambient temperature of the experimental room and humidity (50 ± 10%) were kept consistent throughout all the tests. For behavioral experiments the animals were selected randomly. Each experimental group consisted of 4–8 animals/dose. The experiments were performed between 9 AM and 2 PM. Immediately after the in vivo assay the animals were euthanized by cervical dislocation. All procedures were approved by the Local Ethics Committee of the Jagiellonian University in Krakow (34/2018, 1.02.2018)) and the treatment of animals was in full accordance with ethical standards laid down in respective Polish and EU regulations (Directive No. 86/609/EEC). For in vivo tests the compounds 3a–3j were prepared in 1% Tween 80 solution (POCH, Poland) and they were administered by the intraperitoneal route. Control mice received 1% Tween 80. Pentylenetetrazole (PTZ), pilocarpine hydrochloride and scopolamine butylbromide were provided by Sigma Aldrich (Poland). For the tests they were prepared in 0.9% saline (Polfa Kutno, Poland). PTZ and pilocarpine were administered 60 min after the test compound or vehicle. To assess anticonvulsant properties of the test compounds anticonvulsant screening was conducted. Four assays were used: PTZ, maximal electroshock seizure (MES), 6-Hz and pilocarpine tests. In these assays the dose of 100 mg/kg was chosen as a starting dose. If it turned out to be effective, a lower dose (30 mg/kg) was also tested. MES test was performed according to a method previously described (Sałat et al. [2005]). In this test vehicle-treated mice and drug-treated mice received a stimulus of 25 mA delivered by an electroshock generator (Hugo Sachs rodent shocker, Germany) to induce maximal seizures (tonic extension) of hind limbs. Electroconvulsions were produced with the use of auricular electrodes and the stimulus duration was 0.2 s. Tonic extension of the hind limbs was regarded as the endpoint for this procedure.

[3] = Mus musculus, read-out: X/Y number of mice protected (X) per number of mice tested (Y) (converted)

Row | Structure (SMILES) | responders at 100 mg/kg [1, 3] [%] | animals with reduced seizures [2] [%] | responders at 30 mg/kg [2] [%] | responders at 100 mg/kg [2] [%] | anticonvulsant activity in MES test [2] | responders at 30 mg/kg ([1]; Mus musculus, 30 mg/kg ip, read-out: X/Y number of mice protected (X) per number of mice tested (Y) (converted)) [%] | animals protected from seizures ([1]; 100 mg/kg) [%]
1 | Clc1ccc(-c2csc(N/N=C/C3CC3)n2)cc1 [Compound 3c, (E)-4-(4-Chlorophenyl)-2-(2-(cyclopropylmethylene)hydrazinyl)thiazole] | 25 | 75 | 0 | 75 | not active | – | –
2 | FC(F)(F)c1ccc(-c2csc(N/N=C/C3CC3)n2)cc1 [Compound 3e, (E)-2-(2-(Cyclopropylmethylene)hydrazinyl)-4-(4-(trifluoromethyl)phenyl)thiazole] | 25 | 63 | 0 | 62.5 | not active | – | –
3 | Fc1ccc(-c2csc(N/N=C/C3CC3)n2)c(F)c1 [Compound 3g, (E)-2-(2-(Cyclopropylmethylene)hydrazinyl)-4-(2,4-difluorophenyl)thiazole] | 25 | – | – | 37.5 | – | – | –
4 | Fc1ccc(-c2csc(N/N=C/C3CC3)n2)cc1 [Compound 3a, (E)-2-(2-(Cyclopropylmethylene)hydrazinyl)-4-(4-fluorophenyl)thiazole] | 25 | – | – | 37.5 | – | – | –
5 | [N-]=[N+]=Nc1ccc(-c2csc(N/N=C/C3CC3)n2)cc1 [Compound 3i, (E)-4-(4-Azidophenyl)-2-(2-(cyclopropylmethylene)hydrazinyl)thiazole] | 75 | – | – | 37.5 | – | 25 | 75
6 | N#Cc1ccc(-c2csc(N/N=C/C3CC3)n2)cc1 [Compound 3h, (E)-4-(2-(2-(Cyclopropylmethylene)hydrazinyl)thiazol-4-yl)benzonitrile] | 50 | – | – | 50 | – | – | –
7 | COc1ccc(-c2csc(N/N=C/C3CC3)n2)cc1 [Compound 3f, (E)-2-(2-(Cyclopropylmethylene)hydrazinyl)-4-(4-methoxyphenyl)thiazole] | 50 | – | – | 50 | – | – | –
8 | Cc1ccc(-c2csc(N/N=C/C3CC3)n2)cc1 [Compound 3d, (E)-2-(2-(Cyclopropylmethylene)hydrazinyl)-4-p-tolylthiazole] | 50 | – | – | 37.5 | – | – | –
9 | O=[N+]([O-])c1ccc(-c2csc(N/N=C/C3CC3)n2)cc1 [Compound 3j, (E)-2-(2-(Cyclopropylmethylene)hydrazinyl)-4-(4-nitrophenyl)thiazole] | 0 | – | – | 50 | – | – | –
10 | Brc1ccc(-c2csc(N/N=C/C3CC3)n2)cc1 [Compound 3b, (E)-4-(4-Bromophenyl)-2-(2-(cyclopropylmethylene)hydrazinyl)thiazole] | 0 | – | – | 37.5 | – | – | –
